Measurements as given in ChEMBL document CHEMBL3085759, “Structure-activity relationship (SAR) and preliminary mode of action studies of 3-substituted benzylthioquinolinium iodide as anti-opportunistic infection agents” (Eur J Med Chem, 2013).
In brackets after ≈: the same amount, converted by molar mass.

Legend:
Staphylococcus aureus [1] = test: Antimicrobial activity against Staphylococcus aureus ATCC 29213 by Alamar blue method; type: functional, organism-based; conditions: Staphylococcus aureus, ATCC 29213; for IC50: read-out: IC50
Vero = test: Cytotoxicity against african green monkey Vero cells at 10 ug/ml after 48 hrs by Neutral Red dye assay; type: cell-based; conditions: chlorocebus sabaeus
Nakaseomyces glabratus = test: Antimicrobial activity against Candida glabrata by Alamar blue method; type: functional, organism-based
Staphylococcus aureus [2] = test: Antimicrobial activity against methicillin-resistant Staphylococcus aureus ATCC 33591 by Alamar blue method; type: functional, organism-based
Pichia kudriavzevii = test: Antimicrobial activity against Candida krusei ATCC 6258 by Alamar blue method; type: functional, organism-based
Cryptococcus neoformans = test: Antimicrobial activity against Cryptococcus neoformans ATCC 90113 by Alamar blue method; type: functional, organism-based
Aspergillus fumigatus = test: Antimicrobial activity against Aspergillus fumigatus ATCC 204305 by Alamar blue method; type: functional, organism-based
[3] = test system: Mycobacterium intracellulare; test: Antimicrobial activity against Mycobacterium intracellulare ATCC 23068 by Alamar blue method; type: functional, organism-based
Candida albicans = test: Antimicrobial activity against Candida albicans ATCC 90028 by Alamar blue method; type: functional, organism-based

SMILES | MBC (Staphylococcus aureus [1]) | MIC (Staphylococcus aureus [1]) | IC50 (Staphylococcus aureus [1]) | IC50 (Nakaseomyces glabratus) | MFC (Nakaseomyces glabratus) | MIC (Nakaseomyces glabratus) | IC50 (Staphylococcus aureus [2]) | MBC (Staphylococcus aureus [2]) | MIC (Staphylococcus aureus [2]) | IC50 (Pichia kudriavzevii) | MFC (Pichia kudriavzevii) | MIC (Pichia kudriavzevii) | IC50 (Cryptococcus neoformans) | MFC (Cryptococcus neoformans) | MIC (Cryptococcus neoformans) | IC50 (Aspergillus fumigatus) | MFC (Aspergillus fumigatus) | MIC (Aspergillus fumigatus) | IC50 [3] | MIC [3] | other results
Brc1cccc(CSc2cc3ccccc3[n+](CCCCCC3CCCCC3)c2)c1.[I-] | 0.63 µg/mL | 0.63 µg/mL | 0.42 µg/mL | 1.4 µg/mL | 2.5 µg/mL | 2.5 µg/mL | 0.21 µg/mL | 0.63 µg/mL | 0.31 µg/mL | 0.4 µg/mL | 0.63 µg/mL | 0.63 µg/mL | 0.56 µg/mL | 1.3 µg/mL | 0.63 µg/mL | 4.8 µg/mL | 10 µg/mL | 10 µg/mL | 3.2 µg/mL | 5 µg/mL | Activity (Vero): Non-toxic; MBC [3]: 5 µg/mL; IC50 (Candida albicans): 2.6 µg/mL; MFC (Candida albicans): 5 µg/mL; MIC (Candida albicans): 5 µg/mL
Brc1ccc(CSc2cc3ccccc3[n+](CCCCCC3CCCCC3)c2)cc1.[I-] | 1.3 µg/mL | 0.63 µg/mL | 0.4 µg/mL | 1.6 µg/mL | 5 µg/mL | 5 µg/mL | 0.4 µg/mL | 1.3 µg/mL | 0.63 µg/mL | 0.49 µg/mL | 0.63 µg/mL | 0.63 µg/mL | 0.22 µg/mL | 0.63 µg/mL | 0.63 µg/mL | 2.4 µg/mL | 5 µg/mL | 5 µg/mL | 6.1 µg/mL | 10 µg/mL | Activity (Vero): Non-toxic; MBC [3]: 10 µg/mL; IC50 (Candida albicans): 0.5 µg/mL; MFC (Candida albicans): 2.5 µg/mL; MIC (Candida albicans): 1.3 µg/mL
[I-].c1ccc(Oc2cc3ccccc3[n+](CCCCCC3CCCCC3)c2)cc1 | > 20 µg/mL | > 20 µg/mL | 19 µg/mL | > 20 µg/mL | > 20 µg/mL | > 20 µg/mL | > 20 µg/mL | > 20 µg/mL | > 20 µg/mL | > 20 µg/mL | > 20 µg/mL | > 20 µg/mL | > 20 µg/mL | > 20 µg/mL | > 20 µg/mL | > 20 µg/mL | > 20 µg/mL | > 20 µg/mL | > 20 µg/mL | > 20 µg/mL | MBC [3]: > 20 µg/mL; IC50 (Candida albicans): > 20 µg/mL; MFC (Candida albicans): > 20 µg/mL; MIC (Candida albicans): > 20 µg/mL
Fc1ccccc1CSc1cc2ccccc2[n+](CCCCCC2CCCCC2)c1.[I-] | 2.5 µg/mL | 1.3 µg/mL | 0.73 µg/mL | 6.3 µg/mL | 20 µg/mL | 20 µg/mL | 0.74 µg/mL | 2.5 µg/mL | 1.3 µg/mL | 1.4 µg/mL | 2.5 µg/mL | 2.5 µg/mL | 0.63 µg/mL | 1.3 µg/mL | 1.3 µg/mL | 6.5 µg/mL | 20 µg/mL | 20 µg/mL | 16 µg/mL | 20 µg/mL | Activity (Vero): Non-toxic; MBC [3]: 20 µg/mL; IC50 (Candida albicans): 2.7 µg/mL; MFC (Candida albicans): 5 µg/mL; MIC (Candida albicans): 5 µg/mL
Ic1cc2ccccc2[n+](CCCCCC2CCCCC2)c1.[I-] | > 20 µg/mL | > 20 µg/mL | 18 µg/mL | > 20 µg/mL | > 20 µg/mL | > 20 µg/mL | > 20 µg/mL | > 20 µg/mL | > 20 µg/mL | 1.7 µg/mL | 10 µg/mL | 10 µg/mL | 5.8 µg/mL | 10 µg/mL | 10 µg/mL | > 20 µg/mL | > 20 µg/mL | > 20 µg/mL | > 20 µg/mL | > 20 µg/mL | MBC [3]: > 20 µg/mL; IC50 (Candida albicans): > 20 µg/mL; MFC (Candida albicans): > 20 µg/mL; MIC (Candida albicans): > 20 µg/mL
[I-].c1ccc2c(c1)cc(SC1CCCCC1)c[n+]2CCCCCC1CCCCC1 | 10 µg/mL | 1.3 µg/mL | 0.74 µg/mL | 15 µg/mL | > 20 µg/mL | > 20 µg/mL | 1.2 µg/mL | 10 µg/mL | 2.5 µg/mL | 0.35 µg/mL | 2.5 µg/mL | 2.5 µg/mL | 1.2 µg/mL | 2.5 µg/mL | 2.5 µg/mL | > 20 µg/mL | > 20 µg/mL | > 20 µg/mL | 8.4 µg/mL | 10 µg/mL | MBC [3]: 10 µg/mL; IC50 (Candida albicans): > 20 µg/mL; MFC (Candida albicans): > 20 µg/mL; MIC (Candida albicans): > 20 µg/mL
[I-].c1ccc(CCSc2cc3ccccc3[n+](CCCCCC3CCCCC3)c2)cc1 | 10 µg/mL | 1.3 µg/mL | 0.73 µg/mL | 9.5 µg/mL | > 20 µg/mL | 20 µg/mL | 1.2 µg/mL | 10 µg/mL | 2.5 µg/mL | 0.69 µg/mL | 5 µg/mL | 5 µg/mL | 0.73 µg/mL | 1.3 µg/mL | 1.3 µg/mL | 19 µg/mL | > 20 µg/mL | > 20 µg/mL | 12 µg/mL | 20 µg/mL | IC50 (Candida albicans): 3.6 µg/mL; MFC (Candida albicans): > 20 µg/mL; MIC (Candida albicans): > 20 µg/mL
O=C(O)c1cn(C2CC2)c2cc(N3CCNCC3)c(F)cc2c1=O [CIPROFLOXACIN] | – | 0.5 µg/mL (≈ 1.51 µM) | – | – | – | – | – | – | 0.5 µg/mL (≈ 1.51 µM) | – | – | – | – | – | – | – | – | – | 0.005 µg/mL (≈ 0.0151 µM) | 0.45 µg/mL (≈ 1.36 µM) | –
